The term IC50 denotes the midpoint of a concentration-inhibition curve. In general, Ki refers to a dissociation constant, usually derived from enzyme kinetics or from competition with a known ligand.

The values below come from patent US6593357B1, “Pyrazole compositions useful as inhibitors of ERK” (Vertex Pharmaceuticals Incorporated, priority 2000, dated 2003).

One assay deals with T1, Aurora2 (Homo sapiens, UniProt O14965).
T1 sequence (O14965 1-403): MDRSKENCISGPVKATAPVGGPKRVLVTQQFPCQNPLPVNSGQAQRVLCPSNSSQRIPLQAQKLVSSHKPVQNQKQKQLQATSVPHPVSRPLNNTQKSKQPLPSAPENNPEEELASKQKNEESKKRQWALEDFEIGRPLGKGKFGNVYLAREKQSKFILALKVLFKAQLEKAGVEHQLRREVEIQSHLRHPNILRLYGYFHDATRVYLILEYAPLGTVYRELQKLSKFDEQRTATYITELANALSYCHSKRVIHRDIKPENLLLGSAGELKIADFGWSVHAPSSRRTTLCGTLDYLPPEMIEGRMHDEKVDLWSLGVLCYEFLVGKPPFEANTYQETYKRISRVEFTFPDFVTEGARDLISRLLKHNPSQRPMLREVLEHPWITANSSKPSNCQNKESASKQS
Put plainly: Aurora inhibition, standard coupled enzyme assay. Format: biochemical. The following applies: 40 μM ATP, 30° C.; read-out: Aurora2 Inhibitory Activity (IC50 class). Here is the method:
Compounds were screened in the following manner for their ability to inhibit Aurora using a standard coupled enzyme assay. To an assay stock buffer solution containing 0.1M HEPES 7.5, 10 mM MgCl2, 25 mM NaCl, 2.5 mM phosphoenolpyruvate, 300 μM NADH, 30 μg/mL pyruvate kinase, 10 μg/mL lactate dehydrogenase, 40 μM ATP, and 800 μM peptide (LRRASLG, American Peptide, Sunnyvale, Calif.) was added a 30 μM solution of the compound in DMSO and the resulting mixture incubated at 30° C. for 10 min. The reaction was initiated by the addition of 10 μL of 70 nM Aurora and 1 mM DTT. The rates of reaction were obtained by monitoring absorbance at 340 nm over a 5 minute read time at 30° C. using a BioRad Ultramark plate reader (Hercules, Calif.). The IC50 was determined from the rate data as a function of inhibitor concentration.
The compound numbers correspond to the compound numbers in Table 1.

A further assay deals with ERK2 (Homo sapiens, UniProt P28482). Kind of assay: ERK2 inhibition, spectrophotometric coupled-enzyme assay. The class given is biochemical. The following applies: activated ERK2 10 nM, 65 μM ATP, 30° C., pH 7.5; read-out: ERK2 Inhibitory Activity (Ki class).
Chain of ERK2 (P28482 whole entry): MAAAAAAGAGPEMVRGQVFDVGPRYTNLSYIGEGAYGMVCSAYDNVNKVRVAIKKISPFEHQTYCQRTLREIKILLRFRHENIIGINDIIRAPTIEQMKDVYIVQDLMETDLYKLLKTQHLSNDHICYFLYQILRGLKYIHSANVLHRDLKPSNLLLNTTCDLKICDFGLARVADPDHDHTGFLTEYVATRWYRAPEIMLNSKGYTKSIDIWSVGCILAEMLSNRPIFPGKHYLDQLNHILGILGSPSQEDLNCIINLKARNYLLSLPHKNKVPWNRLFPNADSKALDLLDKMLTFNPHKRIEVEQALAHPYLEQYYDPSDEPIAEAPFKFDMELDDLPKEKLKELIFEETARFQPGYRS

Consider `COc1ccc(-c2cn[nH]c2-c2c[nH]c(C(=O)N3CCOCC3)c2)cc1OC` [II-228], for which, at Aurora2, the concentration for half-maximal inhibition (IC50) was < 5 µM. Same read-out and setting: for `O=C(NOCc1ccccc1)c1cc(-c2[nH]ncc2-c2cccc(Cl)c2)c[nH]1` [II-57] the value was < 5 µM; for `O=C(NCc1cccnc1)c1cc(-c2[nH]ncc2-c2ccc(Cl)cc2)c[nH]1` [II-214], 5 to 10 µM. The same measure, in the same setting: the value for `O=C(NCC1CCCO1)c1cc(-c2[nH]ncc2-c2cc(F)ccc2F)c[nH]1` (centres unmarked) [II-188] was > 10 µM; that for `COc1ccc(-c2cn[nH]c2-c2c[nH]c(C(=O)NCc3cccnc3)c2)cc1OC` [II-215] was 5 to 10 µM; that for `O=C(NCCc1cnc[nH]1)c1cc(-c2[nH]ncc2-c2ccc(Cl)c(Cl)c2)c[nH]1` [II-254] was < 5 µM.

For `O=C(NCc1ccncc1)c1cc(-c2[nH]ncc2-c2cccc(F)c2F)c[nH]1` [II-141], the Ki on ERK2 fell in the range of 1000 to 5000 nM. Further, the IC50 on Aurora2 is < 5 µM. As to `COc1ccc(-c2cn[nH]c2-c2c[nH]c(C(=O)NCc3ccncc3)c2)cc1OC` [II-212], the IC50 at Aurora2 is 5 to 10 µM. On the same count and under the same terms, for `O=C(NCCc1cnc[nH]1)c1cc(-c2[nH]ncc2-c2ccc(Cl)cc2)c[nH]1` [II-252] the value was 5 to 10 µM.

Regarding `O=C(NOCc1ccccc1)c1cc(-c2[nH]ncc2-c2ccc(F)c(Cl)c2)c[nH]1` [II-77], the Ki at ERK2 is < 1000 nM. For the same molecule, on Aurora2, the IC50 is < 5 µM. The like results for `O=C(NOCc1ccccc1)c1cc(-c2[nH]ncc2-c2cc(Cl)cc(Cl)c2)c[nH]1` [II-51] were, in that order, < 1000 nM and 5 to 10 µM. On to `O=C(NCc1ccncc1)c1cc(-c2[nH]ncc2-c2ccc(F)c(Cl)c2)c[nH]1` [II-70], for which the Ki at ERK2 is < 1000 nM. Moreover, at Aurora2, the IC50 is 5 to 10 µM. The like results for `O=C(NCc1cccnc1)c1cc(-c2[nH]ncc2-c2cccc(Cl)c2F)c[nH]1` [II-114] were, in that order, < 1000 nM and < 5 µM.

On to `O=C(NOCc1ccccc1)c1cc(-c2[nH]ncc2-c2cccc(Cl)c2F)c[nH]1` [II-82], for which the Ki on ERK2 is < 1000 nM. Moreover, on Aurora2, the IC50 was < 5 µM.

`CCN(C)C(=O)c1cc(-c2[nH]ncc2-c2cccc(Cl)c2F)c[nH]1` [II-81]: the Ki at ERK2 is < 1000 nM. Also, at Aurora2, the IC50 is < 5 µM.

As to `O=C(NOCc1ccccc1)c1cc(-c2[nH]ncc2-c2ccc(Cl)cc2)c[nH]1` [II-99], the Ki on ERK2 was < 1000 nM. Moreover, the IC50 at Aurora2 is < 5 µM.

Regarding `O=C(NCc1cccnc1)c1cc(-c2[nH]ncc2-c2cc(F)ccc2F)c[nH]1` [II-181], the IC50 at Aurora2 lay within 5 to 10 µM. `O=C(NCc1ccncc1)c1cc(-c2[nH]ncc2-c2ccc(F)c(F)c2)c[nH]1` [II-88]: at ERK2, the Ki is < 1000 nM. The IC50 on Aurora2 fell in the range of 5 to 10 µM. On to `O=C(NCc1cccnc1)c1cc(-c2[nH]ncc2-c2cc(Cl)cc(Cl)c2)c[nH]1` [II-76], for which, on ERK2, the Ki was < 1000 nM. Besides, the 50% inhibitory concentration (IC50) at Aurora2 was < 5 µM.

On to `O=C(NC(CO)c1ccccc1)c1cc(-c2[nH]ncc2-c2cccc(Br)c2)c[nH]1` (centres unmarked) [II-72], for which the Ki on ERK2 is < 1000 nM. The IC50 at Aurora2 was in the range of 5 to 10 µM.

With `O=C(NCCc1cnc[nH]1)c1cc(-c2[nH]ncc2-c2cc(Cl)cc(Cl)c2)c[nH]1` [II-266], on Aurora2, the IC50 fell in the range of 5 to 10 µM. Still for that read-out and setting: the value for `COc1ccc(-c2cn[nH]c2-c2c[nH]c(C(=O)NOCc3ccccc3)c2)cc1OC` [II-260] was > 10 µM; that for `O=C(NCc1ccncc1)c1cc(-c2[nH]ncc2-c2ccc3c(c2)OCO3)c[nH]1` [II-213] was 5 to 10 µM. On to `O=C(NCCc1cnc[nH]1)c1cc(-c2[nH]ncc2-c2cccc(Cl)c2F)c[nH]1` [II-255], for which, on Aurora2, the IC50 fell in the range of 5 to 10 µM. In the case of `O=C(NCc1ccncc1)c1cc(-c2[nH]ncc2-c2cccc([N+](=O)[O-])c2)c[nH]1` [II-289], the Ki at ERK2 is > 5000 nM. Take `O=C(c1cc(-c2[nH]ncc2-c2cccc(Br)c2)c[nH]1)N(CCCO)Cc1ccncc1` [II-156]: on ERK2, the Ki was in the range of 1000 to 5000 nM. The same measure, in the same setting: the value for `O=C(NC(CO)c1ccccc1)c1cc(-c2[nH]ncc2-c2cc(I)c(O)c([N+](=O)[O-])c2)c[nH]1` (centres unmarked) [II-42] was < 1000 nM. Same read-out and setting: the value for `CCOC(=O)c1cc(-c2[nH]ncc2-c2cccc([N+](=O)[O-])c2)c[nH]1` [II-6] was < 1000 nM. Still for that read-out and setting: the value for `O=C(c1cc(-c2[nH]ncc2-c2cccc(Cl)c2F)c[nH]1)N1CCOCC1` [II-129] was 1000 to 5000 nM. As to `O=C(NCc1ccccc1)c1cc(-c2[nH]ncc2-c2ccc(Cl)cc2)c[nH]1` [II-92], the Ki at ERK2 is < 1000 nM.

With `COc1ccccc1CNC(=O)c1cc(-c2[nH]ncc2-c2cccc(Br)c2)c[nH]1` [II-69], the Ki on ERK2 is < 1000 nM. Take `Nc1cccc(-c2cn[nH]c2-c2c[nH]c(C(=O)NCc3ccccc3)c2)c1` [II-131]: at ERK2, the Ki lay within 1000 to 5000 nM. In the case of `CCN(C)C(=O)c1cc(-c2n[nH]cc2-c2cccc(Cl)c2)c[nH]1` [II-93], at Aurora2, the half-maximal inhibitory concentration (IC50) is < 5 µM.

Regarding `CCOC(=O)c1cc(-c2[nH]ncc2-c2cccc(Cl)c2)c[nH]1` [II-151], at ERK2, the Ki lay in the range of 1000 to 5000 nM. On the same count and under the same terms, the value for `CCC(NC(=O)c1cc(-c2[nH]ncc2-c2cccc(Br)c2)c[nH]1)c1ccccc1` (centres unmarked) [II-62] was < 1000 nM. The same measure, in the same setting: the value for `O=C(NCc1ccc(-c2cnns2)cc1)c1cc(-c2[nH]ncc2-c2cccc(Br)c2)c[nH]1` [II-110] was < 1000 nM; that for `O=C(NCc1cccnc1)c1cc(-c2[nH]ncc2-c2ccc(Cl)c(Cl)c2)c[nH]1` [II-74] was < 1000 nM; that for `Cc1ccc(N2CCN(C(=O)c3cc(-c4[nH]ncc4-c4cccc(Br)c4)c[nH]3)CC2)cc1` [II-126] was 1000 to 5000 nM.

As for `Nc1cc(-c2cn[nH]c2-c2c[nH]c(C(=O)NC(CO)c3ccccc3)c2)cc(I)c1O` (centres unmarked) [II-44], the Ki on ERK2 was < 1000 nM.

On to `COC(=O)c1cccc(-c2cn[nH]c2-c2c[nH]c(C(=O)NCc3ccccc3)c2)c1` [II-132], for which the Ki at ERK2 is 1000 to 5000 nM. With `O=C(NCc1cccnc1)c1cc(-c2[nH]ncc2-c2ccc3c(c2)OCO3)c[nH]1` [II-216], the IC50 on Aurora2 lay within 5 to 10 µM.

For the molecule `O=C(c1cc(-c2[nH]ncc2-c2cccc(Br)c2)c[nH]1)N(Cc1ccccc1)[C@H](CO)c1ccccc1` [II-288], the inhibition constant Ki at ERK2 lay in the range of 1000 to 5000 nM. Still for that read-out and setting: for `CN1CCN(C(=O)c2cc(-c3[nH]ncc3-c3ccccc3)c[nH]2)CC1` [II-21] the value was > 5000 nM.

Take `O=C(NCc1ccncc1)c1cc(-c2[nH]ncc2-c2ccc(Cl)cc2)c[nH]1` [II-211]: the half-maximal inhibitory concentration (IC50) at Aurora2 lay within 5 to 10 µM. `COc1cccc(-c2cn[nH]c2-c2c[nH]c(C(=O)N3CCOCC3)c2)c1` [II-135]: the Ki on ERK2 was 1000 to 5000 nM. Regarding `O=C(NCC1CCCO1)c1cc(-c2[nH]ncc2-c2ccc(F)c(Cl)c2)c[nH]1` (centres unmarked) [II-100], on ERK2, the Ki is < 1000 nM.

In the case of `O=C(N[C@@H](CO)Cc1ccccc1)c1cc(-c2[nH]ncc2-c2cccc(Br)c2)c[nH]1` [II-91], the Ki at ERK2 was < 1000 nM.

For the molecule `COc1ccc(-c2cn[nH]c2-c2c[nH]c(C(=O)NCC3CCCO3)c2)cc1OC` (centres unmarked) [II-218], on Aurora2, the IC50 was 5 to 10 µM. `O=C(NC(CCO)c1ccccc1)c1cc(-c2[nH]ncc2-c2cccc(Br)c2)c[nH]1` (centres unmarked) [II-59]: the Ki on ERK2 was < 1000 nM. Turning to `COc1ccc(-c2cn[nH]c2-c2c[nH]c(C(=O)NCC3CCCN(C(=O)OC(C)(C)C)C3)c2)cc1OC` (centres unmarked) [II-259], the IC50 at Aurora2 was in the range of 5 to 10 µM. In the case of `O=C(Nc1ccc(F)c(F)c1)c1cc(-c2[nH]ncc2-c2cccc(Br)c2)c[nH]1` [II-40], the Ki at ERK2 was < 1000 nM.

In the case of `COc1cc(OC)c(CNC(=O)c2cc(-c3[nH]ncc3-c3cccc(Br)c3)c[nH]2)c(OC)c1` [II-118], on ERK2, the Ki is 1000 to 5000 nM.

In the case of `COc1cc(CNC(=O)c2cc(-c3[nH]ncc3-c3cccc(Br)c3)c[nH]2)cc(OC)c1` [II-68], on ERK2, the Ki was < 1000 nM. For the molecule `O=C(c1cc(-c2[nH]ncc2-c2ccccc2)c[nH]1)N1CCCC1` [II-4], the Ki at ERK2 was < 1000 nM. Still for that read-out and setting: the value for `O=C(NNc1cccc(C(F)(F)F)c1)c1cc(-c2[nH]ncc2-c2cccc(Br)c2)c[nH]1` [II-56] was < 1000 nM; that for `CCOC(=O)c1cc(-c2[nH]ncc2-c2ccc([N+](=O)[O-])cc2)c[nH]1` [II-165] was > 5000 nM. The same measure, in the same setting: for `CCN(C)C(=O)c1cc(-c2[nH]ncc2-c2cccc(OC)c2)c[nH]1` [II-292] the value was > 5000 nM. For the molecule `O=C(c1cc(-c2[nH]ncc2-c2cccc(Br)c2)c[nH]1)N1CCC(O)(c2ccc(Br)cc2)CC1` [II-123], the Ki on ERK2 fell in the range of 1000 to 5000 nM. For the molecule `Nc1cccc(-c2cn[nH]c2-c2c[nH]c(C(=O)NCc3ccccc3)c2)c1` [II-73], the Ki on ERK2 was < 1000 nM. As for `CCN(C)C(=O)c1cc(-c2[nH]ncc2-c2ccc(OC)c(OC)c2)c[nH]1` [II-258], the IC50 on Aurora2 was > 10 µM.

Consider `COc1ccc(-c2cn[nH]c2-c2c[nH]c(C(=O)NOCc3ccccc3)c2)cc1` [II-133], for which the Ki at ERK2 fell in the range of 1000 to 5000 nM. Still for that read-out and setting: for `COc1cccc(-c2cn[nH]c2-c2c[nH]c(C(=O)N3CCN(C)CC3)c2)c1` [II-29] the value was > 5000 nM; for `O=C(NCc1ccccc1)c1cc(-c2[nH]ncc2-c2ccc(F)cc2)c[nH]1` [II-111], < 1000 nM.
